Experimental data: patent US6358883B1, “Pesticidal and parasiticidal use of 1-aryl-1-(substituted thio, sulfinyl and sulfonyl)-2-nitroethane compounds” (American Cyanamid Company, priority 1998, dated 2002)

How the values were obtained:
Assay type in all cases: in vivo
[1] = system: Spodoptera eridania, 2nd instar larvae, southern armyworm (SAW); assay: Southern armyworm (SAW) leaf dip test; design: key: 0 = no effect; 1 = 10-25% kill; 2 = 26-35% kill; 3 = 36-45% kill; 4 = 46-55% kill; 5 = 56-65% kill; 6 = 66-75% kill; 7 = 76-85% kill; 8 = 86-99% kill; 9 = 100% kill
Method in brief: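 Compound is dissolved at 10,000 ppm in 35% acetone/water, then diluted with water. Lima bean leaves are dipped for 3 seconds, dried and placed with ten 2nd instar larvae on damp filter paper. Mortality, reduced feeding and molting interference are scored at 5 days.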

[2] = system: C. elegans (Bristol strain); assay: Evaluation of test compounds against C. elegans (motility, 96-well plate); design: key: 9=complete kill in 4 hours; 8=complete kill in 24 hours; 7=markedly reduced motility in approximately 95% of worms in 24 hours; 0=normal motility, same as controls; conditions: motility at 4 and 24 hours
Method in brief: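 Bristol-strain C. elegans in Na buffer added to wells containing dried compound (applied in 80% acetone) and incubated at 20 °C. Motility of adults and larvae scored subjectively but semi-quantitatively under a dissecting microscope at 4 and 24 h after immersion, plates tapped before reading.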

[3] = system: Spodoptera eridania, eggs-southern armyworm (SAW-Eggs); assay: Southern armyworm eggs (SAW-Eggs) treated diet test; design: key: 0 = no effect; 1 = 10-25% kill; 2 = 26-35% kill; 3 = 36-45% kill; 4 = 46-55% kill; 5 = 56-65% kill; 6 = 66-75% kill; 7 = 76-85% kill; 8 = 86-99% kill; 9 = 100% kill; conditions: mortality after 7 days
Method in brief: (§1)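 Compounds dissolved at 10,000 ppm in 35% acetone/water, diluted with water, applied to artificial diet in wells and dried. Southern corn rootworm or southern armyworm eggs placed on treated diet under vented covers; mortality counted after 7 days.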

[4] = system: Diabrotica undecimpunctata howardi, eggs-southern corn rootworm (SCR-Eggs); assay: Southern corn rootworm eggs (SCR-Eggs) treated diet test; design: key: 0 = no effect; 1 = 10-25% kill; 2 = 26-35% kill; 3 = 36-45% kill; 4 = 46-55% kill; 5 = 56-65% kill; 6 = 66-75% kill; 7 = 76-85% kill; 8 = 86-99% kill; 9 = 100% kill; conditions: mortality after 7 days
Method in brief: as §1

[5] = system: M. incognita (Root Knot Nematode) larvae; assay: Evaluation of test compounds against M. incognita larvae in microtiter plate wells (movement score); conditions: larvae scored for movement after 20-24 hours; note: key: A score of '9' indicates inactive worms with a straight, sticklike morphology; A score of '8' indicates inactive worms with a limp, curled or curved morphology; A score of '7' indicates dead/paralyzed worms after 72 hours
Method in brief: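 Newly emerged M. incognita larvae in S Medium (buffered salt solution), 50-65 worms per well, exposed to test compounds in sealed microtiter wells. Movement scored after 20-24 h incubation; wells with obviously dead/paralyzed larvae scored positive. A score of "7" denotes dead/paralyzed worms after […].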

[6] = system: Diabrotica virgifera virgifera Leconte, 2nd instar western corn rootworm (WCR); assay: Western corn rootworm (WCR) soil test; design: key: 0 = no effect; 1 = 10-25% kill; 2 = 26-35% kill; 3 = 36-45% kill; 4 = 46-55% kill; 5 = 56-65% kill; 6 = 66-75% kill; 7 = 76-85% kill; 8 = 86-99% kill; 9 = 100% kill
Method in brief: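 Compound in 35% acetone/water applied to talc at 1.25 mg active ingredient per jar (about 50 kg/ha), solvent evaporated, then mixed with millet seed and moist soil. Ten 2nd-instar larvae per jar; mortality counted after 5 days, missing larvae scored dead.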

[7] = system: Tetranychus urticae (OP-resistant strain), 2-spotted spider mite (TSM); assay: 2-spotted spider mite (TSM) plant dip test; design: key: 0 = no effect; 1 = 10-25% kill; 2 = 26-35% kill; 3 = 36-45% kill; 4 = 46-55% kill; 5 = 56-65% kill; 6 = 66-75% kill; 7 = 76-85% kill; 8 = 86-99% kill; 9 = 100% kill; conditions: mortality after 2 days
Method in brief: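 OP-resistant mites (~100 per leaf) were transferred onto Sieva lima bean primary leaves about 2 h before treatment. Infested plants were dipped for 3 s in compound from a 10,000 ppm stock in 35% acetone/water, diluted with water. Mortality was counted after 2 days.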

[8] = system: Aphis gossypii, cotton aphid (CA); assay: Cotton aphid (CA) cotyledon dip test; design: key: 0 = no effect; 1 = 10-25% kill; 2 = 26-35% kill; 3 = 36-45% kill; 4 = 46-55% kill; 5 = 56-65% kill; 6 = 66-75% kill; 7 = 76-85% kill; 8 = 86-99% kill; 9 = 100% kill; conditions: mortality after 5 days
Method in brief: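 Cotyledon-stage cotton plants infested overnight via a heavily infested leaf, then dipped in test solution (compound in 35% acetone/water, diluted with water) and dried. Mortality counted after 5 days.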

Structure (SMILES)	SAW (300 ppm) rating [1]	Rating Against C. elegans (150 ppm) [2]	SAW Eggs (300 ppm) rating [3]	SCR Eggs (1000 ppm) rating [4]	M. incognita (150 ppm) score [5]	WCR (50 ppm) rating [6]	TSM (300 ppm) rating [7]	CA (300 ppm) rating [8]
COC(=O)CSC(C[N+](=O)[O-])c1cccnc1 (stereo not drawn) [Example 171]	0	7	0	0	9	0	0	0
O=[N+]([O-])CC(SCc1ccccc1)c1cccnc1 (stereo not drawn) [Example 177]	0	0	0	0	9	0	0	0
O=C(O)CSC(C[N+](=O)[O-])c1cccc([N+](=O)[O-])c1 (stereo not drawn) [Example 128]	0	9	0	0	9	0	0	0
CCOC(=O)CSC(C[N+](=O)[O-])c1ccc(OC(F)(F)F)cc1 (racemic) [Example 118]	0	8	9 (9 = 100% kill)	0	0	0	0	0
CCOC(=O)CSC(C[N+](=O)[O-])c1ccc2ccccc2c1 (racemic) [Example 111]	0	8	8 (8 = 86-99% kill)	0	0	0	0	0
O=C(CSC(C[N+](=O)[O-])c1ccc(OC(F)(F)F)cc1)OCc1ccccc1 (racemic) [Example 121]	0	9	0	0	8	0	0	0
COC(=O)CSC(C[N+](=O)[O-])c1cccc(C#N)c1 (racemic) [Example 98]	5 (5 = 56-65% kill)	8	0	0	0	0	3 (3 = 36-45% kill)	0
COc1ccc(C(C[N+](=O)[O-])SCC(=O)OCCCCCC(C)C)cc1 (stereo not drawn) [Example 50]	0	7	9 (9 = 100% kill)	0	0	0	0	0
C=CCSC(C[N+](=O)[O-])c1cccc([N+](=O)[O-])c1 (stereo not drawn) [Example 129]	0	0	0	0	0	0	0	0
CCCSC(C[N+](=O)[O-])c1ccc(OC)cc1 (stereo not drawn) [Example 53]	4 (4 = 46-55% kill)	9	0	0	9	0	0	0
CCCSC(C[N+](=O)[O-])c1cccnc1 (stereo not drawn) [Example 175]	0	0	0	0	9	0	0	0
COC(=O)CSC(C[N+](=O)[O-])c1ccccc1 (stereo not drawn) [Example 4]	0	9	0	0	9	4 (4 = 46-55% kill)	0	5 (5 = 56-65% kill)
CCCCOC(=O)CSC(C[N+](=O)[O-])c1ccc(OC)cc1 (stereo not drawn) [Example 49]	0	9	0	0	9	0	0	0
CCCSC(C[N+](=O)[O-])c1cccc(OC)c1 (stereo not drawn) [Example 61]	0	7	0	0	0	0	0	5 (5 = 56-65% kill)
C=CCSC(C[N+](=O)[O-])c1cccnc1 (stereo not drawn) [Example 176]	0	0	0	0	9	0	0	0
